From paper PMC9037210, “Novel 3-(6-methylpyridin-2-yl)coumarin-based chalcones as selective inhibitors of cancer-related carbonic anhydrases IX and XII endowed with anti-proliferative activity” (Journal of Enzyme Inhibition and Medicinal Chemistry, 2022)

Assays:
HCT-15 = test: NCI single (10 µM) dose SRB screening, HCT-15; type: cell-based, human; settings: 10 µM single dose, HCT-15, Colon cancer
Experimental: (§1) Following NCI protocol, sixteen MPCs were screened for their potential in vitro anticancer effects against human 59 cancer cell panels including prostate, leukaemia melanoma, colon, breast, CNS, renal, NSCLC, and ovarian cancers by National Cancer Institute (USA)[30].
(§2) The antiproliferative activities of MPC 3 and MPCs 5a–o were first evaluated in a 10 µM dose assay, with SRB assay used to determine cell survival and proliferation. […] The results of the cell growth inhibitory activities for MPCs 5g and 5l towards the different treated tumour cell lines were presented as GI% and presented in Table 3.
(§3) The anticancer test was conducted using the methods of the Drug Evaluation Branch, National Cancer Institute, Bethesda, MD, using 59 human tumour cell lines derived from nine human tissues. The GI50, TGI, and LC50 dose-response parameters were calculated for each medication.

SR = test: NCI five dose assay, SR; type: cell-based, human; settings: Leukaemia
Experimental: (§4) MPC 5l was then chosen for additional biological evaluation in a five-dose (0.01–100 µM) experiment. MPC 5l's GI50, TGI, and LC50 response parameters were obtained for each of the cancer cell lines studied. TGI represents cytostatic impact, whereas GI50 values reflect the extent of growth inhibitory effect. Furthermore, the LC50 parameter is regarded as the cytotoxicity parameter for the hybrid under investigation.
as §3

LOX IMVI = test: NCI five dose assay, LOX IMVI; type: cell-based, human; settings: Melanoma
Experimental: as §4, §3

SW-620 = test: NCI five dose assay, SW-620; type: cell-based, human; settings: SW-620, Colon cancer
Experimental: as §4, §3

MDA-MB-468 = test: NCI single (10 µM) dose SRB screening, MDA-MB-468; type: cell-based, human; settings: 10 µM single dose, MDA-MB-468, Breast cancer
Experimental: as §1, §2, §3

T-47D = test: NCI single (10 µM) dose SRB screening, T-47D; type: cell-based, human; settings: 10 µM single dose, Breast cancer
Experimental: as §1, §2, §3

EKVX = test: NCI single (10 µM) dose SRB screening, EKVX; type: cell-based, human; settings: 10 µM single dose, NSC lung cancer
Experimental: as §1, §2, §3

HOP-92 = test: NCI five dose assay, HOP-92; type: cell-based, human; settings: HOP-92, NSC lung cancer
Experimental: as §4, §3

HCT-116 [1] = test: NCI five dose assay, HCT-116; type: cell-based, human; settings: HCT-116, Colon cancer
Experimental: as §4, §3

[2] = test system: fifty-nine cancer cell lines; test: full NCI panel five dose assay, whole panel; type: cell-based; settings: five-dose (0.01–100 µM)
Experimental: as §4, §3

OVCAR-3 = test: NCI single (10 µM) dose SRB screening, OVCAR-3; type: cell-based, human; settings: 10 µM single dose, OVCAR-3, Ovarian cancer
Experimental: as §1, §2, §3

U251 [3] = test: NCI single (10 µM) dose SRB screening, U251; type: cell-based, human; settings: 10 µM single dose, U251, CNS cancer
Experimental: as §1, §2, §3

K-562 = test: NCI five dose assay, K-562; type: cell-based, human
Experimental: as §4, §3

SF-539 = test: NCI single (10 µM) dose SRB screening, SF-539; type: cell-based, human; settings: 10 µM single dose, SF-539, CNS cancer
Experimental: as §1, §2, §3

SNB-19 = test: NCI single (10 µM) dose SRB screening, SNB-19; type: cell-based, human; settings: 10 µM single dose, SNB-19, CNS cancer
Experimental: as §1, §2, §3

MCF7 = test: NCI five dose assay, MCF7; type: cell-based, human; settings: MCF7, Breast cancer
Experimental: as §4, §3

RPMI-8226 = test: NCI five dose assay, RPMI-8226; type: cell-based, human; settings: RPMI-8226, Leukaemia
Experimental: as §4, §3

HCT-116 [4] = test: NCI single (10 µM) dose SRB screening, HCT-116; type: cell-based, human; settings: 10 µM single dose, HCT-116, Colon cancer
Experimental: as §1, §2, §3

U251 [5] = test: NCI five dose assay, U251; type: cell-based, human
Experimental: as §4, §3

[6] = Homo sapiens, read-out: IC50 (the source's name)

In the case of `Cc1nc(-c2cc3ccccc3oc2=O)ccc1C(=O)/C=C/c1ccccn1` [Compound 5l, 3-(6-Methyl-5-[(2E)-3-(pyridin-2-yl)prop-2-enoyl]pyridin-2-yl)-2H-chromen-2-one], the GI % (HCT-15) is reported as 133%, the GI50 (SR; Homo sapiens) is reported as 5.3 µM and the LC50 (SR; [6]) is reported as greater than 100 µM. It also gave a TGI (SR) greater than 100 µM, a GI50 (LOX IMVI; Homo sapiens) of 3.2 µM and an LC50 (LOX IMVI; [6]) greater than 100 µM. It also gave a TGI (LOX IMVI) greater than 100 µM, a GI50 (SW-620; Homo sapiens) of 6.77 µM and an LC50 (SW-620; [6]) greater than 100 µM. For the same molecule, the TGI (SW-620) was greater than 100 µM, the GI % (MDA-MB-468) was 39% and the GI % (T-47D) was 47%. The GI % (EKVX) was “– (Only GI % more than 20% are displayed.)”, the TGI (HOP-92) was greater than 100 µM and the GI50 (HOP-92; Homo sapiens) was 7.25 µM. For the same molecule, the LC50 (HOP-92; [6]) was greater than 100 µM, the TGI (HCT-116 [1]) was greater than 100 µM and the GI50 (HCT-116 [1]; Homo sapiens) was 6.34 µM. The LC50 (HCT-116 [1]; [6]) was greater than 100 µM, the CC50 ([2]; Homo sapiens, all cancer cells, read-out: LC50 (the source's name)) was greater than 100 µM and the GI50 ([2]; Homo sapiens, remaining cancer cells (other than the nine of Table 4)) was greater than 100 µM. The TGI ([2]; all cancer cell lines) was greater than 100 µM, the GI % (OVCAR-3) was 53% and the GI % (U251 [3]) was 92%. The GI50 (K-562; Homo sapiens, K562, K-562, Leukaemia) was 6.47 µM, the LC50 (K-562; Homo sapiens, K562, K-562, Leukaemia, read-out: IC50 (the source's name)) was greater than 100 µM and the TGI (K-562; K-562, Leukaemia) was greater than 100 µM. The GI % (SF-539) was 97%, the GI % (SNB-19) was 28% and the GI50 (MCF7; Homo sapiens) was 3.72 µM. The LC50 (MCF7; [6]) was greater than 100 µM, the TGI (MCF7) was greater than 100 µM and the GI50 (RPMI-8226; Homo sapiens) was 3.41 µM. For the same molecule, the LC50 (RPMI-8226; [6]) was greater than 100 µM, the TGI (RPMI-8226) was greater than 100 µM and the GI % (HCT-116 [4]) was 121%. The GI50 (U251 [5]; Homo sapiens, U-251, U251, CNS cancer) was 8.49 µM, the LC50 (U251 [5]; Homo sapiens, U-251, U251, CNS cancer, read-out: IC50 (the source's name)) was greater than 100 µM and the TGI (U251 [5]; U251, CNS cancer) was greater than 100 µM.
`Cc1nc(-c2cc3ccccc3oc2=O)ccc1C(=O)/C=C/c1ccc(N2CCOCC2)cc1` [Compound 5g, 3-(6-Methyl-5-[(2E)-3-[4-(morpholin-4-yl)phenyl]prop-2-enoyl]pyridin-2-yl)-2H-chromen-2-one] was tested, and the GI % (HCT-15) was 45%, the GI % (MDA-MB-468) was 54% and the GI % (T-47D) was “– (Only GI % more than 20% are displayed.)”. For the same molecule, the GI % (EKVX) was “– (Only GI % more than 20% are displayed.)”, the GI % (OVCAR-3) was “– (Only GI % more than 20% are displayed.)” and the GI % (U251 [3]) was “– (Only GI % more than 20% are displayed.)”. The GI % (SF-539) was 54% and the GI % (HCT-116 [4]) was “– (Only GI % more than 20% are displayed.)”.
